Assay results: patent US20260137082A1 (priority 2021, published 2026)
In brackets after ≈: the same amount, converted by molar mass. Read-outs that look alike come from different tables or passages of the source.

What was measured:
Fusarium asiaticum = test: microbe, parasite or virus in culture; conditions: 72 h, read-out: EC50 Value
Procedure: The fungicidal activity of cyclobutrifluram, fludioxonil (FDL), and mixtures thereof with various weight ratios (e.g., 10:1 and 1:50) of cyclobutrifluram and FDL was tested against Fusarium asiaticum and Fusarium pseudograminearum.
Specifically, according to the results of pre-experiment, the best concentration ranges for determination of the sensitivity of pathogens to cyclobutrifluram, FDL and mixtures thereof were respectively determined, and 5-7 concentration gradients were set to make the inhibition rate at the minimum concentration close to 10% and the inhibition rate at the highest concentration close to 90%. […]
Mycelial plugs in the edge of colony were prepared by hole puncher with a diameter of 5 mm. […] After cultured in an incubator at 25° C. for three days in darkness, the diameters of every mycelial colony on PDA plates were measured twice perpendicularly and then averaged. […]
The EC50 values of each tested agent and each mixture were calculated by the linear regression analysis between the probability value of the inhibition rate and the log value of the series of concentrations. The co-toxicity coefficient (CTC) of the mixtures was calculated and evaluated according to the Sun-YP method.

Gibberella fujikuroi = test: microbe, parasite or virus in culture; assay type: cell-based; conditions: Fusarium fujikuroi, 72 h, read-out: EC50 Value
[1] = system: Fusarium graminearum (Gibberella zeae) strain K-6102; assay type: cell-based; conditions: solo fungicide, 4 days, 24° C., OD 620 nm

SMILES | EC50 (Fusarium asiaticum) [µg/mL] | EC50 (Gibberella fujikuroi) [µg/mL] | Efficacy (%, n = 5) ([1]; 0.1 ppm) [%] | Efficacy (%, n = 5) ([1]; 1 ppm) [%] | Efficacy (%, n = 5) ([1]; 10 ppm) [%]
O=C(NC1CCC1c1ccc(Cl)cc1Cl)c1cccnc1C(F)(F)F (stereo in doubt) [cyclobutrifluram, N-[(1,2 cis)-2-(2,4-dichlorophenyl)cyclobutyl]-2-(trifluoromethyl)pyridine-3-carboxamide] | 0.0214 (≈ 0.055 µM) | 0.75 (≈ 1.93 µM) | 30.8 | 31.3 | 34.1
N#CC1=CN=CC1c1cccc2c1OC(F)(F)O2 (stereo not shown) [FDL, 4-(2,2-difluoro-benzo[1,3]dioxol-4-yl)pyrrole-3-carbonitrile] | 0.0196 (≈ 0.079 µM) | 0.173 (≈ 0.697 µM) | 20.4 | 43.4 | 65.4
